Reference: paper PMC10243363 (ACS chemical neuroscience, 2022)
Structures can show the parent of a compound that is named as a salt. Where two headings read alike, the source gives them in different places.

Key:
MOR [1] = molecular target: T1, MOR (Mus musculus, UniProt P42866); assay: [35S]-GTPγS binding assay, mMOR-CHO membrane; assay type: biochemical; settings: for MOR %Emax: %Emax = 100 defined using Emax of 3 μM DAMGO; for MOR %Emax / EC50: mean ± SEM; for EC50: read-out: MOR EC50
mice [2] = assay: Warm-water tail immersion; assay type: in vivo, mouse; settings: for Antinociceptive effect (%MPE) in single-dose screening: 20 min, vs vehicle; for Antinociception potency ED50 (95% CL): 20 min after injection; for Time of peak antinociceptive effect: time-course study; for Blocking of the antinociception of 0.1 mg/kg NMF by selective antagonist: nor-BNI, β-FNA 10 mg/kg s.c. 24 h prior, NTI 15 mg/kg s.c. 30 min prior
DOR = DOR (Mus musculus, UniProt P32300); assay: [35S]-GTPγS binding assay, mDOR-CHO membrane; assay type: biochemical; settings: for DOR %Emax: %Emax = 100 defined using 5 μM SNC80; for DOR %Emax / EC50: mean ± SEM; for EC50: read-out: DOR EC50
KOR [3] = molecular target: T2, KOR (Mus musculus, UniProt P33534); assay: Competitive radioligand binding assay, KOR; settings: for Selectivity D/K: ratio of Ki DOR/KOR; for Selectivity M/K: ratio of Ki MOR/KOR
MOR [4] = molecular target: T1, MOR; assay: Competitive radioligand binding assay, MOR; settings: ratio of Ki DOR/MOR
KOR [5] = molecular target: T2, KOR; assay: [35S]-GTPγS binding assay, mKOR-CHO membrane; assay type: biochemical; settings: mean ± SEM; for KOR %Emax: %Emax = 100 defined using 5 μM U50,488H; for EC50: read-out: KOR EC50
rats = settings: rat, in vivo, iv
mice [6] = assay: Tolerance and cross tolerance; settings: day 5; 0.1 mg/kg NMF vs 10 mg/kg morphine
mice [7] = assay: Spontaneous locomotor activity; settings: 30 min
mice [8] = assay: Respiration by whole-body plethysmography; assay type: in vivo, mouse; settings: 0.1 mg/kg
Caco-2 cell monolayer = assay: Caco-2 permeability assay; settings: 10 μM; ± SEM
mice [9] = settings: cited from earlier work
[10] = 0.003 mg/kg; cited from earlier work
monkeys = settings: 0.001 mg/kg; cited from earlier work
[11] = 0.03 mg/kg; cited from earlier work
[12] = cited from earlier work
[13] = Caco-2 permeability assay; settings: human, Caco-2
[14] = Weight change under chronic administration; settings: 10 mg/kg s.c. twice daily, mice
[15] = cited from earlier work; remark: listed apart in the source

Molecule	MOR %Emax (MOR [1]) [%]	EC50 (MOR [1]) [nM]	DOR %Emax (DOR)	EC50 (DOR) [nM]	Selectivity D/K (KOR [3])	Selectivity M/K (KOR [3])	Selectivity D/M (MOR [4])	KOR %Emax (KOR [5]) [%]	EC50 (KOR [5]) [nM]	other results
Cl.O=C(/C=C/c1ccoc1)N[C@H]1CC[C@@]2(O)[C@H]3Cc4ccc(O)c5c4[C@@]2(CCN3CC2CC2)[C@H]1O5 [Compound 9, (2E)-N-[6α-17-(Cyclopropylmethyl)-3,14-dihydroxy-4,5α-epoxy-morphinan-6-yl]-3-(3-furanyl)-2-propenamide hydrochloride]	25.9 ± 1.0	8.41 ± 0.98	108 ± 6%	83.6 ± 28.8	10	0.6	16	73.7 ± 2.5	15.3 ± 1.9	Antinociceptive effect (%MPE) in single-dose screening (mice [2]; 10 mg/kg s.c., mice): no significant increase of %MPE
Cl.O=C(/C=C/c1ccoc1)N[C@@H]1CC[C@@]2(O)[C@H]3Cc4ccc(O)c5c4[C@@]2(CCN3CC2CC2)[C@H]1O5 [Compound 10, (2E)-N-[6β-17-(Cyclopropylmethyl)-3,14-dihydroxy-4,5α-epoxy-morphinan-6-yl]-3-(3-furanyl)-2-propenamide hydrochloride]	40.8 ± 2.2	1.36 ± 0.14	103 ± 11%	24.8 ± 4.7	26	1.8	15	95.2 ± 4.9	0.36 ± 0.02	Antinociception potency ED50 (95% CL) (mice [2]; mice, s.c.): 2.414 (1.720 - 3.388) mg/kg
CN(C(=O)/C=C/c1ccoc1)[C@@H]1CC[C@@]2(O)[C@H]3Cc4ccc(O)c5c4[C@@]2(CCN3CC2CC2)[C@H]1O5.Cl [Compound 11, (2E)-N-[6β-17-(Cyclopropylmethyl)-3,14-dihydroxy-4,5α-epoxy-morphinan-6-yl]-3-(3-furanyl)-N-methyl-2-propenamide hydrochloride]										Duration of antinociception (mice [2]; 0.1 mg/kg s.c., mice): approximately 3 hours; Calculated ED90 of antinociception (mice [2]; mice, s.c.): 0.1 mg/kg; Antinociception potency ED50 (95% CL) (mice [2]; mice, s.c.): 0.037 (0.014 - 0.096) mg/kg; Time of peak antinociceptive effect (mice [2]; s.c., mice): around 0.5 h; Reinforcing effect in self-administration (number of infusions vs saline) (rats): non-reinforcer; Antinociceptive effect in morphine-tolerated mice (cross tolerance) (mice [6]): retained a higher antinociceptive effect than morphine; Activity-reducing (sedative) effects on locomotor activity (mice [7]; 0.1 mg/kg or 0.5 mg/kg s.c.): no significant activity-reducing effects; Hyperactivity in locomotor activity test (mice [7]; s.c.): no significant hyperactivity; Effects on respiration (frequency, minute volume, tidal volume) (mice [8]): no significant effects on the respiration; B-A Permeability (Caco-2 cell monolayer): 31.8 ± 0.8 x10^−6 cm/s
CN(C(=O)/C=C/c1ccoc1)[C@@H]1CC[C@@]2(O)[C@H]3Cc4ccc(O)c5c4[C@@]2(CCN3CC2CC2)[C@H]1O5 [Compound 12, (2E)-N-[6β-17-(Cyclopropylmethyl)-3,14-dihydroxy-4,5α-epoxy-morphinan-6-yl]-3-(3-furanyl)-N-methyl-2-propenamide hydrochloride]			moderate-to-high efficacy							Emax (MOR [1]; read-out: MOR %Emax): 30.3 ± 3.7%; Emax (DOR; read-out: DOR %Emax): 65.7 ± 6.4%; Antinociceptive effect in morphine-tolerated mice (mice [9]): retained its antinociceptive effect; Action time [10]: 3 to 4 h; Respiratory depression (monkeys): did not induced respiratory depression; Action time [11]: less than 2 hours
Cl.O=C(/C=C/c1ccoc1)N[C@H]1CC[C@@]2(O)[C@H]3Cc4cccc5c4[C@@]2(CCN3CC2CC2)[C@H]1O5 [Compound 13, (2E)-N-[6α-17-(Cyclopropylmethyl)-4,5α-epoxy-14-hydroxy-morphinan-6-yl]-3-(3-furanyl)-2-propenamide hydrochloride]	22.8 ± 2.1	283 ± 49	102 ± 8%	714 ± 87	1.7	1.9	0.9	103 ± 2	135 ± 25	Antinociceptive effect (%MPE) in single-dose screening (mice [2]; 10 mg/kg s.c., mice): absence of antinociception
Cl.O=C(/C=C/c1ccoc1)N[C@@H]1CC[C@@]2(O)[C@H]3Cc4cccc5c4[C@@]2(CCN3CC2CC2)[C@H]1O5 [Compound 14, (2E)-N-[6β-17-(Cyclopropylmethyl)-4,5α-epoxy-14-hydroxy-morphinan-6-yl]-3-(3-furanyl)-2-propenamide hydrochloride]	27.7 ± 1.1	167 ± 23	107 ± 13%	1500 ± 140	345	26	14	97.9 ± 2.4	46 ± 6.8	Antinociception potency ED50 (95% CL) (mice [2]; mice, s.c.): 3.827 (1.224 -11.97) mg/kg
CN(C(=O)/C=C/c1ccoc1)[C@H]1CC[C@@]2(O)[C@H]3Cc4cccc5c4[C@@]2(CCN3CC2CC2)[C@H]1O5.Cl [Compound 15, (2E)-N-[6a-17-(Cyclopropylmethyl)-4,5a-epoxy-14-hydroxy-morphinan-6-yl]-3-(3-furanyl)-N-methyl-2-propenamide hydrochloride]	55.8 ± 2.9	132 ± 10	108 ± 7%	242 ± 28	249	21	12	98.4 ± 2.4	2.52 ± 0.38	Antinociception potency ED50 (95% CL) (mice [2]; mice, s.c.): 0.341 (0.196 - 0.604) mg/kg
CN(C(=O)/C=C/c1ccoc1)[C@@H]1CC[C@@]2(O)[C@H]3Cc4cccc5c4[C@@]2(CCN3CC2CC2)[C@H]1O5.Cl [Compound 16, (2E)-N-[6β-17-(Cyclopropylmethyl)-4,5α-epoxy-14-hydroxy-morphinan-6-yl]-3-(3-furanyl)-N-methyl-2-propenamide hydrochloride]	17.5 ± 4.4	1800 ± 1100	107 ± 8%	2100 ± 400	343	42	8.1	94.6 ± 2.9	59 ± 7.1	Antinociception potency ED50 (95% CL) (mice [2]; mice, s.c.): 1.610 (1.057 - 2.452) mg/kg
CC(CCc1ccccc1)NCC(O)c1ccc(O)c(C(N)=O)c1 (stereo not drawn) [Labetalol]										%fa: extent of absorption in humans [12]: 90%; %fa: extent of absorption in humans ([12]; listed as labetalol): 90%; Papp A→B at 10 µM [13]: 18.5 ± 0.3 ×10⁻⁶ cm/s; Papp B→A at 10 µM [13]: 34.2 ± 0.4 ×10⁻⁶ cm/s
CN1CC[C@]23c4c5ccc(O)c4O[C@H]2[C@@H](O)C=C[C@H]3[C@H]1C5 [Morphine, reference compound]										Duration of antinociception (mice [2]; 10 mg/kg s.c., mice): approximately 3 hours; Time of peak antinociceptive effect (mice [2]; s.c., mice): around 0.5 h; Weight change [14]: lost weight significantly after only one day
Oc1ccc2c3c1O[C@H]1c4[nH]c5ccccc5c4C[C@@]4(O)[C@@H](C2)N(CC2CC2)CC[C@]314 [NTI, reference compound]										Blocking of the antinociception of 0.1 mg/kg NMF by selective antagonist (mice [2]): able to reduce the antinociception
CC(C)NCC(O)COc1cccc2ccccc12 (stereo not drawn) [Propranolol]										Papp A→B at 10 µM [13]: 23.8 ± 0.4 ×10⁻⁶ cm/s; Papp B→A at 10 µM [13]: 25.6 ± 0.7 ×10⁻⁶ cm/s
CNC(=C[N+](=O)[O-])NCCSCc1ccc(CN(C)C)o1 [Ranitidine]										%fa: extent of absorption in humans [12]: 50%; Papp A→B at 10 µM [13]: 0.5 ± 0.02 ×10⁻⁶ cm/s
Oc1ccc2c3c1O[C@H]1c4[nH]c5c(c4C[C@@]4(O)[C@@H](C2)N(CC2CC2)CC[C@]314)C[C@@]1(O)[C@H]2Cc3ccc(O)c4c3[C@@]1(CCN2CC1CC1)[C@H]5O4 [nor-BNI, reference compound]										Blocking of the antinociception of 0.1 mg/kg NMF by selective antagonist (mice [2]): able to reduce the antinociception
CC[C@@H]1CN2CCc3c([nH]c4cccc(OC)c34)[C@H]2C[C@@H]1/C(=C\OC)C(=O)OC [speciociliatine]										PPB [15]: 90-99%
COC(=O)/C=C/C(=O)N[C@@H]1CC[C@@]2(O)[C@H]3Cc4ccc(O)c5c4[C@@]2(CCN3CC2CC2)[C@H]1O5 [β-FNA, reference compound]										Blocking of the antinociception of 0.1 mg/kg NMF by selective antagonist (mice [2]): not able to block the antinociception
mitragynine										PPB [15]: 90-99%
